Converted amounts (≈) assume the structure as drawn.
Columns and labels:
Assay type in all cases: cell-based
[1] = test system: CMV; assay: Plaque Reduction Test for Cytomegalovirus (AD-169 strain) in MRC-5 cells; settings: Human betaherpesvirus 5, AD169, MRC5
Experimental: MRC-5 cells were grown to confluence in 24 well multi-dishes (well diameter=1.5 cm). The drained cell monolayers were each infected with approximately 50 infectious particles of cytomegalovirus (CMV; AD-169 strain) in 100 μl of phosphate-buffered saline. The virus was adsorbed for 1 hour at room temperature. After adsorption, residual inoculum was removed from each well and replaced with 1 ml of Eagle's MEM containing 10% heat inactivated foetal calf serum and 0.9% agarose (A37). Once the agarose had set, dilutions of the test compound, which had been prepared in Eagle's MEM (containing 10% heat-inactivated calf serum), were added, each well receiving 1 ml of liquid overlay. The test compound was diluted to give the following series of concentrations: 200, 60, 20, 6 . . . 0.06 μg/ml; final concentrations in the assay range, therefore, between 100 μg/ml and 0.03 μg/ml. The infected cultures were incubated at 37° C. in a humidified atmosphere containing 5% CO2 until plaques were clearly visible (about 12 days). The cultures are fixed in formol saline, the agarose overlays were carefully washed off, and then the cell monolayers were stained with carbol fuchsin. A stereo microscope was used to count plaques. The IC50 (concentration of drug which inhibits the number of plaques formed by 50% relative to the number of plaques observed in virus control monolayers) of the test compound was calculated. In addition, the monolayers were examined for evidence of drug-induced cytotoxicity; the minimum concentration at which cytotoxicity occurs was recorded.

[2] = test system: Visna Virus; assay: CPE Inhibition Test (Established Monolayer) for Lentiviruses, visna virus (strain K184) in sheep choroid plexus cells; settings: Visna-maedi virus; visna virus strain K184, SCP cells; read-out: MIC (minimum concentration giving complete protection of the cell monolayers)
Experimental: 3×10^4 sheep choroid plexus (SCP) cells were plated into individual wells of a 96 well microtitre plate in 100 μl of Eagle's MEM with Hanks' salts containing 10% heat inactivated foetal calf serum (FCS). When monolayers had become established (after 1 or 2 days growth) they were washed with 200 μl of maintenance medium (Eagle's MEM with Hanks' salts containing 0.5% FCS) and infected with 100 μl of visna virus (strain K184) in maintenance medium (30 TCID50/ml). Test samples were diluted with maintenance medium in further 96 well microtitre plates over the range 200-0.06 μg/ml by 3-fold dilution steps. 100 μl of the diluted samples was then transferred directly onto virus-infected monolayers (final concentration range therefore 100-0.03 μg/ml) and […] containing 5% CO2 until virus-induced CPE was maximal in the untreated virus-infected controls (usually 12-14 days). The plates were fixed with formal saline and stained with crystal violet. Virus-induced CPE was then scored microscopically and the minimum concentration of sample giving complete protection of the cell monolayers (MIC) determined.

[3] = test system: HIV; assay: HIV Suppression test, viral RNA (nucleic acid hybridisation) in peripheral human lymphocytes; settings: Human immunodeficiency virus 1, Lymphocyte, 96 h; Concn. 0.1 μM; read-out: % Inhibition on Day 4 after infection, Viral RNA
Experimental: (§1) Peripheral human lymphocytes were prepared, cultivated, and harvested as above. Following the determination of the lymphocyte surface markers, unstimulated and mitogen stimulated cells were combined in a ratio of 1:2.
(§2) Under safety conditions these cells are infected with a standard preparation of HIV. The cells are sedimented by centrifugation. The supernatant was discarded and cells were resuspended in the HIV inoculum.
(§3) This inoculum is a liquid suspension of HIV-1 strain virus, pretested and adjusted to a titer that results in a synthesis of viral core protein p24 of >100 ng/ml at day four following infection of human lymphocytes according to the protocol.
(§4) 3×10^8 lymphocytes were resuspended in 1 ml HIV inoculum and incubated at 37° C. for 60 minutes. Subsequently, the cells were washed two times with 50 ml of culture medium and resuspended in culture medium containing 10 units/ml of human recombinant interleukin-2 to yield a cell concentration of 2×10^6 cells/ml. 100 μof this cell suspension was added to each well of the microtiter plates containing the diluted solutions of the compounds. The microtiter plates were cultivated in an incubator with a humidified atmosphere and 5% CO2 at 37° C.
(§5) Accordingly, a fraction of lymphocytes was mock-infected with the same virus preparation that was heat inactivated (30 minutes at 56° C.) prior to infection.
(§6) On each of the days 2,3 and 4 post infection one of the microtiter plates which had been established in triplicate was prepared for determination of viral replication. Viral RNA is determined within the cells whereas the viral core protein p24 was detected in the supernatant of the lymphocyte culture.
(§7) Accordingly, 150 μl of supernatant were removed from each well and transferred to the well of a microtiter plate containing 50 μl/well of SDS (sodium dodecylsulfate, 0.08%). These plates were stored frozen. 50 μl of stop solution (1% SDS, 20 mM sodium acetate, pH 5.0, and 200 μg/ml heparin) were added to the cells remaining in each well. The plates were stored frozen.
(§8) The concentration of p24 synthesized by the HIV infected cells was determined by means of a sandwich ELISA, while the concentration of viral RNA was quantitated by nucleic acid hybridisation, using a ^32 P-labelled DNA probe for the gag/pol region of the viral genome. Absolute levels of viral antigen and RNA in drug treated samples were compared with untreated, virus-infected controls and the percentage inhibition calculated.

[4] = test system: HIV; assay: HIV Suppression test, viral antigen (core protein p24, sandwich ELISA) in peripheral human lymphocytes; settings: Human immunodeficiency virus 1, Lymphocyte, 96 h; Concn. 0.1 μM; read-out: % Inhibition on Day 4 after infection, Viral Antigen
Experimental: as §1, §2, §3, §4, §5, §6, §7, §8

[5] = test system: FIV; assay: Test for Feline Immunodeficiency Virus (FIV Glasgow 8) in Crandell Feline Kidney cells; settings: read-out: MIC (minimum concentration of drug inhibiting syncitial production)
Experimental: Drug stocks were diluted to the appropriate concentration, in medium (e.g. 10 mg/ml to 200 μg/ml). 150 μl of each drug was dispersed in triplicate, across the top row of a microtitre plate (150 μl of media for virus and cell control, vc and cc). 100 μl of medium was dispersed into all other wells. The wells were serially diluted moving down the plate, removing 50 μl from each well and transferring to the next row. 50 μl was discarded from the bottom wells.
Trypsinisation was carried out from a confluent cell monolayer of Crandell Feline Kidney cells, in 10% trypsin, followed by resuspension in media at 1×10^6 per ml, ensuring that a single cell suspension is achieved. (Media: 90% 1×RPMI, 25 mM hepes buffer; 10% Foetal calf serum; 2% Glutamine; 2% penecillin/streptomycin.)
FIV Glasgow 8 virus was diluted to 4× the required virus challenge in medium (40 TCID50 /ml). The virus infected medium was mixed with an equal volume of cell suspension, 100 μl of which was aliquoted into each well of the drug plate, except cell control. 100 μl of cell suspension at 5×10^4 per ml was added to the latter. This gives a final cell concentration of 2.5×10^4 per ml, and drug range 100-0.03 μg/ml. The plates were incubated at 37° C., 5% CO2 in an air humidified incabator for 11-14 days. The cells were fixed by immersing the plates in formoli saline (10% formaldehyde; 10% 1.5M NaCl; 80% water) for 1 hour minimum. The cells were stained with 10% crystal violet for 15 minutes.
The assay was scored by looking for presence of syncitia and, virus induced cytopathic effect in the cell monolayers, under a microscope. Results are given as the minimum concentration of drug inhibiting syncitial production, minimum inhibitory concentration, MIC.

Nc1nc2c(ncn2OCC/C=C/P(=O)(O)O)c(=O)[nH]1 [Example 1, (E)-9-(4-phosphonobut-3-enyloxy)guanine]
IC50 [1]: 0.16 µg/mL (≈ 0.531 µM) | MIC [2]: < 0.003 µg/mL | inhibition at 0.1 µM [3]: 93% | inhibition at 0.1 µM [4]: 93% | MIC [5]: 0.01 µg/mL (≈ 0.0332 µM)

From patent US5356886A, “Antiviral phosphono-alken derivatives of purines” (Beecham Group p.l.c., priority 1990, dated 1994)
